In patent US10308689B2, “Dengue virus (DV) polypeptide sequences, T cell epitopes and methods and uses thereof” (LA JOLLA INSTITUTE FOR ALLERGY AND IMMUNOLOGY, priority 2010, dated 2019):
Ends that are not written are not given here.

Columns and labels:
[1] = target: purified HLA molecules (corresponding predicted allele); assay: MHC peptide-binding assay, summary over alleles; design: species or system human
[2] = system: PBMC of healthy adult blood donors from Colombo, Sri Lanka; assay: Ex vivo IFNγ ELISPOT, HLA-matched PBMC of Sri Lankan blood donors; format: cell-based, human; design: Total Response per epitope: unit not given here; conditions: for # donors responded: number of donors responding to the epitope; for T cell response [SFC]: ex vivo IFNγ SFC/10^6 PBMC; for # of responders: responding donors, HLA allele(s)
[3] = IFNγ ELISPOT response summed over responding donors, per epitope
[4] = HLA-matched PBMC, proteome-wide screen
[5] = restricting HLA allele and serotype as given
[6] = total over responding donors, restricting HLA allele and serotype as given
[7] = HLA allele, supertype and serotype
[8] = summed IFNγ ELISPOT response per epitope, HLA allele and serotype as given

Compound: LWEGSPGKF
- IC50 ([1]; allele A*2402): 6160 nM
- Total Response per epitope [2, 3]: 25.0
- # donors responded [2, 4]: 1

Compound: NPEIEDDIF
- IC50 ([1]; allele B*3501): 518 nM
- Total Response per epitope [2, 3]: 3390.0
- # donors responded [2, 4]: 10
- T cell response [SFC] ([2]; per epitope): 3390 SFC
- # of responders [2]: 10

Compound: CC(C)C[C@H](NC(=O)[C@@H](NC(=O)[C@H](Cc1c[nH]c2ccccc12)NC(=O)[C@H](C)NC(=O)[C@H](CO)NC(=O)[C@H](C)NC(=O)[C@@H]1CCCN1C(=O)[C@@H](N)Cc1c[nH]cn1)[C@@H](C)O)C(=O)N[C@@H](Cc1ccc(O)cc1)C(=O)O
- IC50 ([1]; allele B*3501): 6 nM
- # donors responded [2, 5]: 3
- Total Response per epitope [2, 6]: 281.7

Compound: CC(C)[C@H](NC(=O)[C@H](CCC(=O)O)NC(=O)[C@H](Cc1ccc(O)cc1)NC(=O)[C@H](CO)NC(=O)CNC(=O)[C@H](Cc1c[nH]cn1)NC(=O)[C@H](Cc1ccc(O)cc1)NC(=O)[C@H](C)NC(=O)[C@@H](N)Cc1c[nH]c2ccccc12)C(=O)O
- IC50 ([1]; allele B*5101): 11 nM
- # donors responded [2, 7]: 1
- Total Response per epitope [2, 8]: 25.0

Compound: VPLLAIGCY
- IC50 ([1]; allele B*3501): 168 nM
- # donors responded [2, 7]: 7
- T cell response [SFC] ([2]; per epitope): 1520 SFC
- # of responders [2]: 7
- Total Response per epitope [2, 8]: 1520.0

Compound: MALKDFKEF
- IC50 ([1]; allele B*3501): 77 nM

Compound: CSCC[C@H](NC(=O)[C@@H](NC(=O)[C@H](Cc1c[nH]cn1)NC(=O)[C@H](Cc1ccccc1)NC(=O)[C@@H](NC(=O)CNC(=O)[C@H](CCC(=O)O)NC(=O)[C@@H](N)CCSC)C(C)C)[C@@H](C)O)C(=O)N[C@@H](Cc1c[nH]c2ccccc12)C(=O)O
- IC50 ([1]; allele B*4403): 3 nM

Compound: WHYDQDHPY
- IC50 ([1]; allele B*3501): 7600 nM

Compound: C[C@H](NC(=O)[C@H](Cc1c[nH]c2ccccc12)NC(=O)[C@@H](NC(=O)[C@H](CCCNC(=N)N)NC(=O)[C@H](Cc1ccc(O)cc1)NC(=O)[C@@H]1CCCN1C(=O)[C@H](CC(N)=O)NC(=O)[C@H](CCC(=O)O)NC(=O)[C@@H](N)CCC(N)=O)[C@@H](C)O)C(=O)N[C@@H](Cc1ccc(O)cc1)C(=O)O
- Total Response per epitope [2, 3]: 265.0
- # donors responded [2, 4]: 1

Compound: FLMVLLIPEP
- # donors responded [2, 5]: 1
- Total Response per epitope [2, 6]: 28.3

Compound: CC[C@H](C)[C@H](NC(=O)[C@H](CO)NC(=O)[C@H](CC(C)C)NC(=O)[C@@H](NC(=O)[C@@H]1CCCN1C(=O)[C@@H](N)CO)[C@@H](C)CC)C(=O)N[C@H](C(=O)N[C@H](C(=O)N[C@@H](CO)C(=O)N[C@@H](CCC(=O)O)C(=O)O)[C@@H](C)CC)[C@@H](C)O
- Total Response per epitope [2, 3]: 1068.3
- # donors responded [2, 4]: 6

Compound: CC(C)C[C@H](NC(=O)CNC(=O)[C@H](C)NC(=O)CNC(=O)[C@H](C)NC(=O)[C@H](CC(C)C)NC(=O)[C@@H](N)Cc1ccc(O)cc1)C(=O)N[C@@H](C)C(=O)N[C@@H](Cc1ccccc1)C(=O)O
- # donors responded [2, 7]: 3
- Total Response per epitope [2, 8]: 340.0

Compound: CC[C@H](C)[C@H](N)C(=O)N1CCC[C@H]1C(=O)N[C@@H](CCSC)C(=O)N[C@@H](CO)C(=O)N[C@H](C(=O)N[C@@H](Cc1ccc(O)cc1)C(=O)NCC(=O)N[C@@H](Cc1c[nH]c2ccccc12)C(=O)N[C@@H](CC(N)=O)C(=O)N[C@@H](CC(C)C)C(=O)O)[C@@H](C)O
- # donors responded [2, 5]: 3
- Total Response per epitope [2, 6]: 320.0

Compound: CC[C@H](C)[C@H](NC(=O)[C@H](CC(N)=O)NC(=O)[C@H](C)NC(=O)[C@@H](N)CCSC)C(=O)N[C@@H](Cc1ccccc1)C(=O)N[C@@H](CCCNC(=N)N)C(=O)NCC(=O)N[C@@H](CO)C(=O)N[C@@H](Cc1ccc(O)cc1)C(=O)O
- Total Response per epitope [2, 3]: 821.7
- # donors responded [2, 4]: 5

Compound: RFLEFEALGF
- Total Response per epitope [2, 3]: 181.7
- # donors responded [2, 4]: 1

Compound: CC(C)C[C@H](NC(=O)[C@@H](NC(=O)[C@H](C)NC(=O)[C@H](CCC(=O)O)NC(=O)CNC(=O)[C@H](CCC(N)=O)NC(=O)[C@@H](NC(=O)[C@@H]1CCCN1C(=O)[C@@H](N)CS)[C@@H](C)O)[C@@H](C)O)C(=O)O
- # donors responded [2, 5]: 1
- Total Response per epitope [2, 6]: 295.0

Compound: IANQAAILM
- # donors responded [2, 5]: 1
- Total Response per epitope [2, 6]: 58.3

Compound: KEGVFHTMW
- # donors responded [2, 5]: 1
- Total Response per epitope [2, 6]: 178.3

Compound: CC[C@H](C)[C@H](NC(=O)[C@H](CC(C)C)NC(=O)[C@H](CS)NC(=O)[C@H](CC(C)C)NC(=O)[C@H](CC(C)C)NC(=O)[C@@H](N)[C@@H](C)O)C(=O)N1CCC[C@H]1C(=O)N[C@H](C(=O)N[C@H](C(=O)O)C(C)C)[C@@H](C)O
- Total Response per epitope [2, 6]: 53.3

Compound: LPVWLAHKVA
- Total Response per epitope [2, 3]: 23.3
- # donors responded [2, 4]: 1
- T cell response [SFC] ([2]; per epitope): 23 SFC
- # of responders [2]: 1

Compound: CC(C)C[C@H](NC(=O)[C@@H](NC(=O)[C@H](C)NC(=O)[C@H](CCC(=O)O)NC(=O)CNC(=O)[C@H](CCC(N)=O)NC(=O)[C@@H](NC(=O)[C@@H]1CCCN1C(=O)[C@@H](N)CS)[C@@H](C)O)C(C)C)C(=O)O
- # donors responded [2, 5]: 2
- Total Response per epitope [2, 6]: 385.0

Compound: YAQMWQLMYF
- Total Response per epitope [2, 3]: 135.0
- # donors responded [2, 4]: 1

Compound: CSCC[C@H](NC(=O)[C@H](CO)NC(=O)[C@H](Cc1ccc(O)cc1)NC(=O)[C@H](CO)NC(=O)[C@@H](N)CCSC)C(=O)N[C@@H](CS)C(=O)N[C@H](C(=O)NCC(=O)N[C@@H](CCCCN)C(=O)N[C@@H](Cc1ccccc1)C(=O)O)[C@@H](C)O
- Total Response per epitope [2, 3]: 2553.3
- # donors responded [2, 4]: 6
- T cell response [SFC] ([2]; per epitope): 2553 SFC
- # of responders [2]: 6

Compound: EERDIPERSW
- # donors responded [2, 5]: 1
- Total Response per epitope [2, 6]: 133.3

Compound: CC[C@H](C)[C@H](N)C(=O)N[C@@H](C)C(=O)N[C@@H](CC(N)=O)C(=O)N[C@@H](CCC(N)=O)C(=O)N[C@@H](C)C(=O)N[C@H](C(=O)N[C@H](C(=O)N[C@@H](CC(C)C)C(=O)N[C@@H](CCSC)C(=O)O)C(C)C)[C@@H](C)O
- # donors responded [2, 5]: 7
- Total Response per epitope [2, 6]: 1518.3

Compound: KQISNELNY
- # donors responded [2, 5]: 1
- Total Response per epitope [2, 6]: 26.7

Compound: CSCC[C@H](NC(=O)[C@H](CCSC)NC(=O)[C@H](CC(C)C)NC(=O)[C@@H](N)CS)C(=O)N[C@@H](CCSC)C(=O)N[C@@H](CC(C)C)C(=O)N1CCC[C@H]1C(=O)N[C@@H](C)C(=O)N[C@H](C(=O)N[C@@H](CC(C)C)C(=O)O)[C@@H](C)O
- # donors responded [2, 5]: 1
- Total Response per epitope [2, 6]: 78.3

Compound: CC(C)[C@H](NC(=O)CNC(=O)[C@H](CO)NC(=O)[C@@H](N)CCC(N)=O)C(=O)N[C@@H](CC(=O)O)C(=O)N[C@H](C(=O)N[C@@H](Cc1ccccc1)C(=O)N[C@@H](Cc1ccccc1)C(=O)N[C@H](C(=O)N1CCC[C@H]1C(=O)O)[C@@H](C)O)C(C)C
- Total Response per epitope [2, 3]: 103.3
- # donors responded [2, 4]: 1

Compound: CSCC[C@H](NC(=O)[C@@H](NC(=O)[C@H](CCCNC(=N)N)NC(=O)CNC(=O)[C@H](CC(C)C)NC(=O)[C@H](CC(=O)O)NC(=O)[C@H](CCCNC(=N)N)NC(=O)[C@H](Cc1ccccc1)NC(=O)[C@H](CO)NC(=O)[C@@H](N)CCSC)C(C)C)C(=O)O
- Total Response per epitope [2, 3]: 3250.0
- # donors responded [2, 4]: 8
- T cell response [SFC] ([2]; per epitope): 3250 SFC
- # of responders [2]: 8

Compound: CC[C@H](C)[C@H](NC(=O)[C@H](CC(C)C)NC(=O)[C@H](CC(C)C)NC(=O)[C@@H](N)CCSC)C(=O)N[C@@H](CC(C)C)C(=O)N[C@@H](CS)C(=O)N[C@H](C(=O)N[C@H](C(=O)N[C@@H](CCC(N)=O)C(=O)N[C@H](C(=O)O)C(C)C)[C@@H](C)O)C(C)C
- Total Response per epitope [2, 3]: 43.3
- # donors responded [2, 4]: 1

Compound: CSCC[C@H](NC(=O)[C@H](Cc1ccc(O)cc1)NC(=O)[C@@H](N)CCCNC(=N)N)C(=O)NCC(=O)N[C@@H](CCC(=O)O)C(=O)N[C@@H](CC(=O)O)C(=O)NCC(=O)N[C@@H](CS)C(=O)N[C@@H](Cc1c[nH]c2ccccc12)C(=O)N[C@@H](Cc1ccc(O)cc1)C(=O)O
- Total Response per epitope [2, 3]: 66.7
- # donors responded [2, 4]: 1

Compound: REWCFTGERN
- Total Response per epitope [2, 3]: 1345.0
- # donors responded [2, 4]: 2

Compound: CLIPTAMAF
- # donors responded [2, 5]: 1
- T cell response [SFC] ([2]; per epitope): 67 SFC
- # of responders [2]: 1
- Total Response per epitope [2, 6]: 66.7

Compound: CSCC[C@H](NC(=O)[C@H](CC(N)=O)NC(=O)[C@@H](NC(=O)[C@H](CO)NC(=O)[C@H](CO)NC(=O)[C@@H](N)C(C)C)C(C)C)C(=O)N[C@H](C(=O)N[C@@H](CO)C(=O)N[C@@H](CCCNC(=N)N)C(=O)N[C@@H](CC(C)C)C(=O)O)C(C)C
- # donors responded [2, 7]: 1
- Total Response per epitope [2, 8]: 421.7

Compound: DTTPFGOOR
- T cell response [SFC] ([2]; per epitope): 3260 SFC
- # of responders [2]: 8

Compound: CC(C)C[C@H](NC(=O)[C@@H](NC(=O)[C@@H](NC(=O)[C@H](CC(C)C)NC(=O)[C@@H]1CCCN1C(=O)CNC(=O)[C@@H](NC(=O)[C@H](C)N)[C@@H](C)O)[C@@H](C)O)[C@@H](C)O)C(=O)N[C@@H](Cc1c[nH]c2ccccc12)C(=O)O
- # donors responded [2, 5]: 1
- T cell response [SFC] ([2]; per epitope): 275 SFC
- # of responders [2]: 1
- Total Response per epitope [2, 6]: 275.0
